Assay results as given in patent US9360471B2, “Anti-aging agents and methods to identify them” (priority 2009, dated 2016).

How the values were obtained:
NIH3T3 cells [1] = assay: TPA-induced transformation of NIH3T3 cells, colony formation in soft agar; format: cell-based, mouse; conditions: 10 μM TPA + AICAR (40 μM)
Method: (A) TPA (10 μM) was incubated with NIH3T3 cells in 0.39% soft agar in the presence of DMSO, 1 nM rapamycin, or 250 nM AICAR, and cultured for 7 days prior to counting colonies under a microscope. (B) The data represents the average of four experiments.
The experiment was done as in Example 19. In brief, 1500 NIH3T3 cells were mixed with 50 μL, of 0.4% agarose in culture medium (basal medium with 10% bovine fetal serum), layered on 96-well plates pre-covered with 50 μL of 0.8% agarose in culture medium. 100 μL of culture medium containing drugs to make final DMSO, 10 μM TPA, 40 μM AICAR, or 10 μM TPA+[…] was then added into the wells. The cells were incubated in a 37° C. incubator with 5% CO2 for more than 7 days. 50 μL of fresh medium was added every 5 days. Colonies were then counted under a microscope.
Transformation of NIH 3T3 cells is a good in vitro tumorigenesis assay, which measures colony formation in soft agar (termed as anchorage-independent growth). The […] TPA (12-O-Tetradecanoylphorbol 13-acetate) is known to stimulate protein kinase C (PKC), activate oncogenes and transform mouse embryonic fibroblast NIH3T3 cells. The TPA-induced anchorage-independent growth of NIH3T3 cell was employed as a tumorigenesis assay. […] Colonies were then counted under a microscope. […]

human lymphoblastoid L40 = assay: mitochondrial mass in human lymphoblastoid L40, MitoTracker Green FM and FACS; format: cell-based; conditions: 2-day treatment; 10 μM LY294002, 2 μM DATS, 1 μM BITC, 1 μM PITC, 2 μg/mL resveratrol, 0.03 μM lycopene, 6.7 μM PEITC, 5 mM silibinin, 1.25 mM selenite, 2.5 mM genistein, 250 μg/mL GSE, 50 μg/mL EGCG, 3 mg/mL bilberry extract, 1 μM AITC, 50 pM rapamycin, 250 μM AICAR
Text: Mitochondrial mass was monitored by staining the 60% Ethanol-fixed cells with MitoTracker Green FM prior to FACS analysis.

NIH3T3 cells [2] = assay: mitochondrial mass in NIH3T3 cells treated with TPA; format: cell-based, mouse; conditions: 10 μM TPA+40 μM AICAR, two days
Method: NIH3T3 cells were incubated in DMEM medium (DMEM with 10% FCS, 100 units/mL penicillin, 100 μg/mL streptomycin and 2 mM glutamine) in the presence of control DMSO, 10 μM TPA, 1 nM rapamycin, 10 μM TPA+1 nM rapamycin, 40 μM AICAR, or 10 μM TPA+40 μM AICAR at 37° C. in a humidified atmosphere consisting of 95% air and 5% CO2 for two days. Cells were then harvested by trypsin and fixed by 60% ethanol. The cells were stained with MitoTracker Greeen FM in darkness for 30 min prior to FACS analysis. The data represents the average of a triplica-experiment.

[3] = system: senescent WI-38 cells (human primary fibroblast); assay: loss of senescent WI-38 cells, β-galactosidase (X-gal) staining; format: cell-based; conditions: 56 days in senescence; 50 pM rapamycin, 250 μM AICAR, 20 μg/mL EGCG, 1.6 μg/mL GSE, 20 μg/mL bilberry extract, 1 μM AITC, 12.5 μM 2-deoxyglucose; 3-day-on/7-day-off (AICAR 2-day-on/8-day-off)
Method: AICAR and reduced glucose treatment were incubated with cells in a 2-day-on/8-day-off cycle, while the rest of agents were in a 3-day-on/7-day-off cycle. The treatment started at passage 29. The medium was refreshed every 3 days. After 56-days from passage 31 (senescence), the cells were briefly fixed in 2% formaldehyde/0.2% glutaraldehyde and stained with 1 mg/mL 5-bromo-4-chloro-3-indolyl β-D-galactoside (X-gal) (in buffer containing 40 mM citric acid/sodium phosphate, pH 6.0, 5 mM potassium ferrocyanide, 5 mM potassium ferricyanide, 150 mM NaCl, and 2 mM MgCl2) at 37° C. for 18 hrs for the senescence marker, cellular β-galactosidase activity (blue in color picture and dark grey in black/white picture). Surviving senescent cells were viewed under a microscope.
This invention discloses that CR or rapamycin also prolongs senescence and prevents cell death induced by telomere dysfunction in human cells. Primary human embryonic lung fibroblasts WI-38 were used. […] Cells at passage 29 were treated with 50 pM rapamycin. The treatment was on a 10-day cycle of 3-day with and 7-day without rapamycin (also termed as 3-day-on/7-day-off cycle). […] Due to increased cytosol β-galactosidase activity, senescent cells are stained a blue color (shown as dark grey in black/white picture). […] Rapamycin didn't transform cells since the senescence marker was still present and cell growth was not observed.

WI-38 cells = assay: MPP+ induced ROS in WI-38 cells, dehydrorhodamine 123 and FACS; format: cell-based, human; conditions: 200 μM MPP^+, 3 days
Method: MPP+ with various concentrations of rapamycin was incubated with WI-38 cells for 3 days. Cells were stained with dehydrorhodamine 123 in the dark for 30 min prior to FACS analysis.
MPP^+, an inhibitor of complex I (NADH CoQ1 reductase) in the mitochondrial respiratory chain, is a dopaminergic neurotoxin. It is commonly used to induce Parkinson's disease in […]. Human primary fibroblast WI-38 cells were treated with 200 μM MPP^+ for 3 days. Cells were then stained with dehydrorhodamine 123 in the dark for 30 min. Cells were then analyzed by FACS.

## NC(=O)c1ncn([C@@H]2O[C@H](CO)[C@@H](O)[C@H]2O)c1N [AICAR, 5-aminoimidazole-4-carboxamide-1-beta-D-ribofuranoside, reference compound]
NIH3T3 cells [1]
  anchorage-independent growth of NIH3T3 cells induced by TPA: inhibits the anchorage-independent growth
Human lymphoblastoid L40
  mitochondrial mass: increased
NIH3T3 cells [2]
  mitochondrial mass decrease induced by TPA: reverses the decrease in mitochondrial mass
[3]
  loss of the senescent WI-38 cells: prevented

## C[n+]1ccc(-c2ccccc2)cc1 [MPP^+]
WI-38 cells
  ROS level in WI-38 cells: greatly increased ROS level
